The molecules below were run against human-KAT6A (MYST domain 507-778 aa) (Homo sapiens (Human), UniProt Q92794) (assay: KAT6A biochemical assay (TR-FRET)). Conditions: @ 1 μM; reported where IC50 could not be determined; read-out: Percent inhibition at specific concentration (KAT6A).
In short: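 KAT6A MYST domain preincubated with compound 30 min at 25° C, then reacted 60 min at 25° C with 200 nM biotin-H4 peptide and 600 nM acetyl-CoA (final). Europium anti-acetyl-lysine/streptavidin-APC TR-FRET read (Ex 340, Em 615/665 nm); % inhibition from 665/615 ratio, IC50 by sigmoidal fit.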

Sequence of human-KAT6A (MYST domain 507-778 aa) (Q92794 507-778): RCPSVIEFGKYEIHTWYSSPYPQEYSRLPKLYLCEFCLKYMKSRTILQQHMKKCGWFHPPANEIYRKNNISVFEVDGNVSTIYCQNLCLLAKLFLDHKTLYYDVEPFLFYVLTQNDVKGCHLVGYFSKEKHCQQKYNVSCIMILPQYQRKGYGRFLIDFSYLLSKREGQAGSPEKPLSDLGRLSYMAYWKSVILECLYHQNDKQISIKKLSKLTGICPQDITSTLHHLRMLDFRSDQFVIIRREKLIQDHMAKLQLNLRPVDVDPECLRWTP

inhibition at 1 µM	Structure (SMILES)
45%	COc1ccc(C(C)(C)C)cc1S(=O)(=O)NC(=O)c1ccc(Cn2cccn2)n(C)c1=O [Compound 267, 6-((1H-Pyrazol-1-yl)methyl)-N-((5-(tert-butyl)-2-methoxyphenyl)sulfonyl)-1-methyl-2-oxo-1,2-dihydropyridine-3-carboxamide]

Same assay, conditions: TR-FRET; histone H4 peptide 200 nM, acetyl-CoA 600 nM; read-out: KAT6A IC50

Structure (SMILES)	IC50
COc1nc(C(=O)NS(=O)(=O)c2cccc(C(C)(C)O)c2)ccc1Cn1cccn1 [Compound 237, 5-((1H-pyrazol-1-yl)methyl)-N-((3-(2-hydroxypropan-2-yl)phenyl)sulfonyl)-6-methoxypicolinamide]	0.044 µM
COc1cc(OC)c(S(=O)(=O)NC(=O)c2ccc(Cn3cccn3)c(OC)n2)cc1Cl [Compound 238, 5-((1H-pyrazol-1-yl)methyl)-N-((5-chloro-2,4-dimethoxyphenyl)sulfonyl)-6-methoxypicolinamide]	0.037 µM
COc1cccc(OC)c1S(=N)(=O)NC(=O)c1ccc(Cn2cccn2)c(OC)n1 (centres unmarked) [Compound 243, 5-((1H-pyrazol-1-yl)methyl)-N-(2,6-dimethoxyphenylsulfonimidoyl)-6-methoxypicolinamide]	0.023 µM
COc1cccc(OC2CCC2)c1S(=N)(=O)NC(=O)c1ccc(Cn2cccn2)c(OC)n1 (centres unmarked) [Compound 261, 5-((1H-pyrazol-1-yl)methyl)-N-(2-cyclobutoxy-6-methoxyphenylsulfonimidoyl)-6-methoxypicolinamide]	0.038 µM
COc1ccc(S(=N)(=O)NC(=O)c2ccc(Cn3cccn3)c(OC)n2)c(OC)c1 (centres unmarked) [Compound 262, 5-((1H-pyrazol-1-yl)methyl)-N-(2,4-dimethoxyphenylsulfonimidoyl)-6-methoxypicolinamide]	0.115 µM
COc1cc(OC)c(S(=N)(=O)NC(=O)c2ccc(Cn3cccn3)c(OC)n2)c(OC)c1 (centres unmarked) [Compound 263, 5-((1H-pyrazol-1-yl)methyl)-6-methoxy-N-(2,4,6-trimethoxyphenylsulfonimidoyl)picolinamide]	0.036 µM
COc1ccc(C(C)(C)CO)cc1S(=O)(=O)NC(=O)c1ccc(Cn2cccn2)c(OC)n1 [Compound 266, 5-((1H-Pyrazol-1-yl)methyl)-N-((5-(1-hydroxy-2-methylpropan-2-yl)-2-methoxyphenyl)sulfonyl)-6-methoxypicolinamide]	0.01 µM
CCc1ccc(OC)c(S(=O)(=O)NC(=O)c2ncc(Cn3cccn3)c(OC)n2)c1 [Compound 271, 5-((1H-Pyrazol-1-yl)methyl)-N-((5-ethyl-2-methoxyphenyl)sulfonyl)-4-methoxypyrimidine-2-carboxamide]	0.037 µM
COc1cc(OC)c(S(=O)(=O)NC(=O)c2ncc(Cn3cccn3)c(OC)n2)c(OC)c1 [Compound 272, 5-((1H-pyrazol-1-yl)methyl)-4-methoxy-N-((2,4,6-trimethoxyphenyl)sulfonyl)pyrimidine-2-carboxamide]	0.033 µM
COc1ccc(C2CC2)cc1S(=O)(=O)NC(=O)c1ncc(Cn2cccn2)c(OC)n1 [Compound 273, 5-((1H-pyrazol-1-yl)methyl)-N-((5-cyclopropyl-2-methoxyphenyl)sulfonyl)-4-methoxypyrimidine-2-carboxamide]	0.034 µM
COc1cccc(OC)c1S(=O)(=O)NC(=O)c1ncc(Cn2cccn2)c(OC)n1 [Compound 274, 5-((1H-pyrazol-1-yl)methyl)-N-((2,6-dimethoxyphenyl)sulfonyl)-4-methoxypyrimidine-2-carboxamide]	0.03 µM

Results, then the molecule that gave them:

IC50	Structure (SMILES)
0.016 µM	CCc1c(OC)cc(OC)c(S(=O)(=O)NC(=O)c2ccc(Cn3cccn3)c(OC)n2)c1OC [Compound 268, 5-((1H-Pyrazol-1-yl)methyl)-N-((3-ethyl-2,4,6-trimethoxyphenyl)sulfonyl)-6-methoxypicolinamide]
0.014 µM	COc1cc(OC)c(S(=O)(=O)NC(=O)c2ccc(Cn3cccn3)c(OC)n2)cc1F [Compound 244, 5-((1H-pyrazol-1-yl)methyl)-N-((5-fluoro-2,4-dimethoxyphenyl)sulfonyl)-6-methoxypicolinamide]
0.014 µM	CCc1nc(C(=O)NS(=O)(=O)c2c(OC)cccc2OC)ccc1Cn1cccn1 [Compound 265, 5-((1H-Pyrazol-1-yl)methyl)-N-((2,6-dimethoxyphenyl)sulfonyl)-6-ethylpicolinamide]
0.012 µM	CCC(C)(O)c1ccc(OC)c(S(=O)(=O)NC(=O)c2ccc(Cn3cccn3)c(OC)n2)c1 (centres unmarked) [Compound 239, 5-((1H-pyrazol-1-yl)methyl)-N-((5-(2-hydroxybutan-2-yl)-2-methoxyphenyl)sulfonyl)-6-methoxypicolinamide]
0.012 µM	COc1cccc(OCC2CC2)c1S(=O)(=O)NC(=O)c1ccc(Cn2cccn2)c(OC)n1 [Compound 245, 5-((1H-pyrazol-1-yl)methyl)-N-((2-(cyclopropylmethoxy)-6-methoxyphenyl)sulfonyl)-6-methoxypicolinamide]
0.012 µM	COc1cc(C#Cc2cccnc2)cc(OC)c1S(=O)(=O)NC(=O)c1ccc(Cn2cccn2)c(OC)n1 [Compound 269, 5-((1H-Pyrazol-1-yl)methyl)-N-((2,6-dimethoxy-4-(pyridin-3-ylethynyl)phenyl)sulfonyl)-6-methoxypicolinamide]
0.011 µM	COc1ccc(C(C)(O)C2CC2)cc1S(=O)(=O)NC(=O)c1ccc(Cn2cccn2)c(OC)n1 (centres unmarked) [Compound 240, 5-((1H-pyrazol-1-yl)methyl)-N-((5-(1-cyclopropyl-1-hydroxyethyl)-2-methoxyphenyl)sulfonyl)-6-methoxypicolinamide]
0.01 µM	COc1ccc(Cl)c(OC)c1S(=O)(=O)NC(=O)c1ccc(Cn2cccn2)c(OC)n1 [Compound 241, 5-((1H-pyrazol-1-yl)methyl)-N-((3-chloro-2,6-dimethoxyphenyl)sulfonyl)-6-methoxypicolinamide]
0.01 µM	COc1cc(OC)c(S(=O)(=O)NC(=O)c2ccc(Cn3cccn3)c(OC)n2)cc1Br [Compound 242, 5-((1H-pyrazol-1-yl)methyl)-N-((5-bromo-2,4-dimethoxyphenyl)sulfonyl)-6-methoxypicolinamide]
0.01 µM	COc1cc(C)cc(OC)c1S(=O)(=O)NC(=O)c1ccc(Cn2cccn2)c(OC)n1 [Compound 275, 5-((1H-pyrazol-1-yl)methyl)-N-((2,6-dimethoxy-4-methylphenyl)sulfonyl)-6-methoxypicolinamide]
0.009 µM	COc1cc(OC)c(S(=O)(=O)NC(=O)c2ccc(Cn3cccn3)c(OC)n2)c2c1CCO2 [Compound 253, 5-((1H-pyrazol-1-yl)methyl)-N-((4,6-dimethoxy-2,3-dihydrobenzofuran-7-yl)sulfonyl)-6-methoxypicolinamide]
0.007 µM	COc1cccc(OC(F)(F)F)c1S(=O)(=O)NC(=O)c1ccc(Cn2cccn2)c(OC)n1 [Compound 235, 5-((1H-pyrazol-1-yl)methyl)-6-methoxy-N-((2-methoxy-6-(trifluoromethoxy)phenyl)sulfonyl)picolinamide]
0.006 µM	[2H]C([2H])([2H])Oc1cc(OC([2H])([2H])[2H])c(S(=O)(=O)NC(=O)c2ccc(Cn3cccn3)c(OC)n2)c(OC([2H])([2H])[2H])c1 [Compound 270, 5-((1H-pyrazol-1-yl)methyl)-6-methoxy-N-((2,4,6-tris(methoxy-d3)phenyl)sulfonyl)picolinamide]
0.004 µM	COc1cccc(OC)c1S(=O)(=O)NC(=O)c1ccc(Cn2cccn2)c(C(F)(F)F)n1 [Compound 236, 5-((1H-pyrazol-1-yl)methyl)-N-((2,6-dimethoxyphenyl)sulfonyl)-6-(trifluoromethyl)picolinamide]

From patent US20250136553A1, “ACYLSULFONAMIDE KAT6A INHIBITORS” (Olema Pharmaceuticals, Inc., priority 2023, published 2025)
